Measurements taken from patent US20040248915A1 (priority 2003, published 2004).
“And” between values parts separate entries of the source, which are not always exact repeats. Equal entries are not always repeated. Where two headings read alike, the source gives them in different places.

Columns and labels:
[1] = test system: relapsed acute myeloid leukemia (AML); conditions: in vivo
[2] = human, in vivo
[3] = mice, bolus i.v. 20 mg/kg, cited from earlier work
[4] = test system: HT-29 human colorectal cancer cells grown as xenografts in nude mice; assay: Antitumor efficacy studies in human xenografts; format: in vivo; conditions: for day from which tumor regressions were observed: 6-day infusion; for inhibition of tumor growth: 53-63 mg/kg
Protocol: Antitumor efficacy studies: In vivo efficacy studies were conducted using the HT-29 human colorectal cancer cells grown as xenografts in nude mice. Female athymic CD-1(nu/nu) mice were injected s.c. with 2×10^6 human colon HT-29 tumor cells. Tumor bearing animals were randomised (10 to 15 per group) and treatment started when tumor volumes reached 80 to 120 mm^3 (days 6 to 9; depending on the study). Tumor measurements, taken by callipers twice weekly, were converted to tumor volumes (in mm^3) using the standard formula, [width (mm)]^2×length (mm)×0.52. […] The pumps were implanted s.c. under sterile conditions at the site opposite to the tumor. These pumps (internal volume, 200 μl) continuously deliver test agent at a rate of 1 μl/h for 200 h (8.3 days total). Pumps were removed after 1, 3, 5 or 6 days, thus insuring continuous delivery of test agent over the course of the experiment. […] Compound efficacy was assessed at the end of the study by percentage of T/C defined as the mean treated tumor volume/mean control tumor volume×100%, with a T/C of about 40% or less being indicative of antitumor activity (J. Plowman et al., Human tumor xenograft models in NCI drug development in Teicher BA (ed) “Anticancer Drug Development Guide: Preclinical screening, clinical trials, and approval”. Humana Press Inc., Totowa, N.J. 1997;101-125). To monitor the drug-associated toxicity, mice were weighed at least twice a week and daily inspected for observable clinical signs. Statistical analysis was performed by ANOVA (ANalysis Of VAriance) or by Student's t test. Differences were considered to be significant at P<0.05.
Once we had established the optimum dose range (activity and well tolerated toxicity), a second study was performed to establish the time necessary to obtain optimum antitumor efficacy. This study was performed using 5, 10 and 20 mg/ml infused over 1, 3 and 5 days, when the tumors had reached 85 mm^3 (day 6).
Bolus administration was given by intravenous injection in the tail vein (10 ml/kg).

[5] = test system: HT-29 human colorectal carcinoma cell line; assay: MTT colometric assay; format: cell-based; conditions: for GI50: Homo sapiens
Protocol: Two different methods were used, the MTT colometric assay and the clonogenic assay. a)MTT colometric assay: HT-29 cells were plated at 2.5×10^3 cells/well in a 96-well tissue culture plate and allowed to attach overnight. […] After the incubation period with the drug, cells were washed and fresh drug-free medium added. On day 3, cellular proliferation was evaluated by the tetrazolium dye assay.

[6] = test system: HT-29 human colorectal carcinoma cell line; assay: Clonogenic assay; format: cell-based; conditions: HT-29 clonal growth; for IC50: Homo sapiens
Protocol: Two different methods were used, the MTT colometric assay and the clonogenic assay. b)Clonogenic assay: HT-29 cells were plated on 6-well flat-bottomed plates (200-400 cells) and allowed to attach overnight. […] After the incubation period with the drug, cells were washed and fresh drug-free medium added. On day 10, cells were exposed to Crystal violet stain.

advanced solid tumors = assay: Phase I continuous infusion in advanced solid tumors: toxicity; format: in vivo, human
Protocol: This is a dose and infusion length finding study to achieve a minimum steady-state plasma concentration of 21 ng/mL (0.1 μM) for 72-120 hr. The starting dose of 3 mg/m^2/d was determined from PK simulation modeling using data obtained from Phase I studies (30-minute infusions). The starting infusion duration was 48 hr with escalation to 72 hr, 96 hr and 120 hr in cohorts of 3-6 patients.
In the results evaluated to date, 12 adults with refractory solid tumors have been treated. The first cohort (4 patients) received drug for 48 h (total dose 6 mg/m^2) with no DLT. The second cohort of patients was treated for 72 hr (total 9 mg/m^2). […] The 2 patients with DLT had the highest plasma concentrations. Enrollment is ongoing at 2.25 mg/m^2/d for 96 h (total 9 mg/m^2).

nucleoside transporters = conditions: membrane permeation not mediated by nucleoside transporters; cited from earlier work
[7] = design: species or system mice; conditions: athymic CD-1 (nu/nu) nude, mouse, in vivo
Protocol: Blood was centrifuged at 10,000 g for 10 minutes and plasma was collected and frozen at −20° C. until further analysis. An aliquot of mouse plasma (100 μl) was precipitated with 300 μl of acetonitrile containing 3TC® (Shire BioChem) as internal standard. After centrifugation at 3,000 ×g for 5 minutes, 300 μl of supernatant was collected and evaporated to dryness under a gentle stream of nitrogen. The residue was then reconstituted with 100 μl of deionized water. […] The chromatography was achieved on a Luna C18 column (150×2 mm, 5 μm, Phenomenix, Torrance, Calif.) with a flow rate of 0.25 ml/min. The aqueous mobile phase, consisting of 10 mM ammonium acetate buffer, pH6.8, was held for 5 minutes and followed by a linear gradient of 0-50% acetonitrile over 8 minutes. Sample analysis was performed on a LC/MS/MS (TSQ7000, Thermo Finnigan, San Jose, Calif.) equipped with electrospray source.

[8] = bolus administration
in vivo [9] = conditions: nude, mouse, 10.6 mg/kg
[10] = rats, 10 mg/kg injection; cited from earlier work
in vivo [11] = conditions: female, mouse
Protocol: Antitumor efficacy studies: In vivo efficacy studies were conducted using the HT-29 human colorectal cancer cells grown as xenografts in nude mice. Female athymic CD-1(nu/nu) mice were injected s.c. with 2×10^6 human colon HT-29 tumor cells. Tumor bearing animals were randomised (10 to 15 per group) and treatment started when tumor volumes reached 80 to 120 mm^3 (days 6 to 9; depending on the study). Tumor measurements, taken by callipers twice weekly, were converted to tumor volumes (in mm^3) using the standard formula, [width (mm)]^2×length (mm)×0.52. […] The pumps were implanted s.c. under sterile conditions at the site opposite to the tumor. These pumps (internal volume, 200 μl) continuously deliver test agent at a rate of 1 μl/h for 200 h (8.3 days total). Pumps were removed after 1, 3, 5 or 6 days, thus insuring continuous delivery of test agent over the course of the experiment. […] To monitor the drug-associated toxicity, mice were weighed at least twice a week and daily inspected for observable clinical signs. Statistical analysis was performed by ANOVA (ANalysis Of VAriance) or by Student's t test. Differences were considered to be significant at P<0.05.

cytidine deaminase (CDA) = cytidine deaminase (CDA) (Homo sapiens, UniProt P32320); conditions: cited from earlier work
Chain of cytidine deaminase (CDA) (P32320 whole entry, species assumed, the tested form may be a part): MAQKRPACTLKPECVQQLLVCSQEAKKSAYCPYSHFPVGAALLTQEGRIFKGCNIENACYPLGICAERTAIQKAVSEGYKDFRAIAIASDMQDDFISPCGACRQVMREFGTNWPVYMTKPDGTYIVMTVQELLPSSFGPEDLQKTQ

[12] = test system: relapsed acute myeloid leukemia (AML); assay: Phase I continuous infusion in relapsed AML: toxicity and antileukemic activity
[13] = cited from earlier work; for recommended doses: DLT neutropenia and skin rash

In the case of `Nc1ccn([C@@H]2CO[C@H](CO)O2)c(=O)n1` [troxacitabine, (−)-β-L-Dioxolane-Cytidine], the hand-foot syndrome ([1]; human) is reported as “Grade 1 and 2 hand-foot syndrome was also observed at all dose levels”, the “dose-limiting Grade 3 stomatitis, patients” value ([1]; human, 6 days) is reported as 2 of 4 and the “dose-limiting stomatitis, patients” value [1] is reported as “Two of the four”. The skin rash [1] was “generalized mild to moderate skin rash was observed at all dose levels”, the “drug exposure above or equal to 0.4 μM” value [2] was 120 h and the “interpatient variation in observed concentrations at each protocol time-point” value [2] was 2-to 3 fold. For the same molecule, the body weight loss (50 mg/ml, 3-5 days following initiation of treatment) was at most 20%, the “maximum tolerated dose (MTD)” value (pump concentration, continuous infusion 6 days, nude mice) was 50 mg/mL and the Cmax ([3]; at 2 minutes, read-out: plasma Cmax) was at least 100 µM. The “elimination t1/2” value [3] was 0.267 h, the “plasma drug concentration by 60 minutes” value [3] was 4.5 µM and the T/C ([4]; 0.5 mg/ml pump, continuous infusion 6 days, day 31) was 79%. For the same molecule, the T/C ([4]; 5 mg/ml pump, continuous infusion 6 days, day 31) was 42%, the “antitumor activity of infusion compared with daily bolus” value ([4]; 10 mg/ml infusion over 6 days vs 10.6 mg/kg daily for 5 consecutive days) was “same antitumor activity” and the T/C ([4]; 10 mg/ml pump, continuous infusion 6 days, day 31) was 22%. The “day from which tumor regressions were observed” value ([4]; 10 mg/ml) was 29 days, the tumor course ([4]; 20 mg/ml infused over 3 days) was “tumor stasis during the first week after treatment followed by tumor regrowth” and the T/C ([4]; 20 mg/ml infused over 3 days, end of study) was 44%. For the same molecule, the tumor regressions ([4]; 20 mg/ml, 5-day infusion) was “Tumor regressions were observed from day 18 till day 28 followed by regrowth”, the T/C ([4]; 20 mg/ml, 5-day infusion, end of study) was 27% and the T/C ([4]; 50 mg/ml pump, continuous infusion 6 days, day 31) was 11%. For the same molecule, the “day from which tumor regressions were observed” value ([4]; 50 mg/ml) was 21 days, the “inhibition of tumor growth” value ([4]; 3-day administration regimens (q7d×3 or 3-day infusions)) was “intermediate” and the “inhibition of tumor growth” value ([4]; 5-6 day regimens (q1d×5 or 6-day infusions)) was “optimal”. For the same molecule, the “effect on tumor growth” value ([4]; one day infusion (24 h), 5, 10 and 20 mg/ml) was “no effect”, the antitumor activity ([4]; single bolus i.v. injection 63 mg/kg) was “low activity” and the “potency of 72-hour versus 1 hr exposure” value ([5]; HT-29, MTT) was 265 fold. The GI50 ([5]; HT-29, 24 h, HT-29, 24 hr drug exposure) was 5 µM, the GI50 ([5]; HT-29, 72 h, HT-29, 72 hr drug exposure) was 1 µM and the GI50 ([5]; HT-29, HT-29, 1 hr drug exposure, read on day 3) was 265 µM. The GI50 ([5]; HT-29, HT-29, 4 hr drug exposure, read on day 3) was 46 µM, the “change in potency when incubation time increased from 72 hr to 144 hr” value [6] was “No further increase in potency” and the “difference between IC50 values following 24- and 72 hr exposures” value [6] was 5 fold. For the same molecule, the IC50 ([6]; 24 hr exposure) was 2.2 µM, the IC50 ([6]; 72 hr exposure) was 0.4 µM and the main non-hematological toxicities (advanced solid tumors; solid tumor patients, continuous infusion) was “mild to moderate skin rash”. For the same molecule, the DLT (advanced solid tumors; solid tumors, 2 mg/m^2/d over 3 days (total 6 mg/m^2), three patients) was “no DLTs observed”, the DLT (advanced solid tumors; solid tumors, 3 mg/m^2/d for 48 h (total 6 mg/m^2), 4 patients) was “no DLT” and the “DLT's, patients” value (advanced solid tumors; solid tumors, 3 mg/m^2/d for 72 hr (total 9 mg/m^2), Grade 4 neutropenia, fever, Grade 3 thrombocytopenia) was 2 of the 5. For the same molecule, the “major route of cellular uptake” value (nucleoside transporters) was “passive diffusion”, the “peak plasma concentrations with prolonged infusion” value [7] was 0.7 to 1.6 µM and the “tolerated drug systemic concentrations, mice compared with humans” value [8] was “over 20 fold”. For the same molecule, the “tolerated exposures, mice compared with humans” value [8] was “over 6 fold”, the AUC at 5 days (in vivo [9]) was 18800 ng·h/mL and the Cmax [10] was at least 100 µM. The MTD at 6 days (in vivo [11]) was 45 to 50 mg/kg/day, the “deamination by cytidine deaminase (CDA)” value (cytidine deaminase (CDA)) was “resistant to deamination” and the “bone marrow aplasia, patients” value ([12]; AML patients who received 40.4-60.6 mg/m^2) was 10 of 17. The “higher cumulative doses achieved than by bolus administration” value ([12]; AML patients, continuous infusion) was 25%, the recommended dose ([12]; AML patients, continuous infusion administered over five days) was 50.5 mg/m^2 and the bone marrow hypoplasia/aplasia ([12]; first 7 AML patients, cumulative doses ≦30.3 mg/m^2) was “not seen”. For the same molecule, the “patients who achieved remissions” value ([12]; first 24 AML patients treated) was 4 patients, the “drug exposure above or equal to 0.4 μM” value ([13]; bolus administration) was 19.3 h and the Cmax plasmatic ([13]; humans, 1.5 and 1.2 mg/m^2/d, first day) was 110 to 140 ng/mL. For the same molecule, the “time to steady state plasma concentration” value ([13]; humans, 5 half-lives (5×12 hrs)) was 60 h, the recommended doses ([13]; humans, 30-minute infusion every 21 days) was 12.5 mg/m^2 and 10 mg/m^2 and the recommended doses ([13]; humans, 30-minute infusion on 5 consecutive days every 4 weeks) was 1.5 mg/m^2/d and 1.2 mg/m^2/d. The “plasma concentrations 5 minutes after drug administration” value ([13]; humans, administered clinical bolus doses) was 0.6 to 4 µM, the “drug concentration less than 30 minutes after the end of infusion” value ([13]; humans, i.v. 10 mg/m^2) was “less than 1 μM” and the “elimination t1/2” value ([13]; humans, i.v. 10 mg/m^2) was 13 h. For the same molecule, the “time drug concentration remained above 0.1 μM” value ([13]; humans, i.v. 10 mg/m^2) was “approximately 12 hours”, the “maximum tolerated dose in humans” value ([13]; i.v. administration) was 10 mg/m^2 and the Cmax ([13]; read-out: Cmax plasmatic, humans, 1.5 and 1.2 mg/m^2/d, first day) was 0.52 to 0.66 µM. For the same molecule, the Cmax ([13]; read-out: plasma Cmax, humans, i.v. 10 mg/m^2) was 4.1 µM.
